Test results published in the NIST ThermoML archive (doi:10.1021/je700293s).

Test: xn = mol fraction of the nth substance listed
Settings: 101 kPa, Liquid, Capillary tube (Ostwald / Ubbelohde) method

CCCCCCCC(=O)OCC(COC(=O)CCCCCCC)OC(=O)CCCCCCC [1,2,3-propanetriol trioctanoate] + CCCCCCCCCC(=O)O
kinematic viscosity [m2/s]
Settings	303.15 K	313.15 K	323.15 K	333.15 K	343.15 K	353.15 K	363.15 K
x2 = 0.4763	1.48e-05	1.05e-05	7.89e-06	6.15e-06	5.12e-06	4.13e-06	3.53e-06
x2 = 0.7423	1.29e-05	9.46e-06	7.16e-06	5.66e-06	4.57e-06	3.88e-06	3.18e-06
x2 = 0.8902	8.98e-06	7.83e-06	6.09e-06	4.9e-06	3.99e-06	3.24e-06	2.58e-06

CCCCCCCC/C=C\CCCCCCCC(=O)O [(Z)-9-octadecenoic acid] + CCCCCCCC/C=C\CCCCCCCC(=O)OCC(COC(=O)CCCCCCC/C=C\CCCCCCCC)OC(=O)CCCCCCC/C=C\CCCCCCCC
x1 = 0.758
Settings	kinematic viscosity [m2/s]
293.15 K	6.78e-05
303.15 K	4.49e-05
313.15 K	3.13e-05
323.15 K	2.28e-05
333.15 K	1.62e-05
343.15 K	1.26e-05
353.15 K	1e-05
363.15 K	8.22e-06

CCCCCCCC/C=C\CCCCCCCC(=O)O [(Z)-9-octadecenoic acid] + CCCCCCCCCC(=O)O
kinematic viscosity [m2/s]
Settings	303.15 K	313.15 K	323.15 K	333.15 K	343.15 K	353.15 K	363.15 K
x2 = 0.3533	1.99e-05	1.45e-05	1.09e-05	8.52e-06	6.83e-06	5.63e-06	4.69e-06
x2 = 0.6211	1.45e-05	1.08e-05	8.25e-06	6.39e-06	5.17e-06	4.27e-06	3.36e-06

CCCCC/C=C\C/C=C\CCCCCCCC(=O)O [(Z,Z)-9,12-octadecadienoic acid] + CCCCCCCC/C=C\CCCCCCCC(=O)OCC(COC(=O)CCCCCCC/C=C\CCCCCCCC)OC(=O)CCCCCCC/C=C\CCCCCCCC
x1 = 0.7576
Settings	kinematic viscosity [m2/s]
303.15 K	2.96e-05
313.15 K	2.13e-05
323.15 K	1.59e-05
333.15 K	1.23e-05
343.15 K	9.76e-06
353.15 K	7.91e-06
363.15 K	6.52e-06

CCCCC/C=C\C/C=C\CCCCCCCC(=O)OCC(COC(=O)CCCCCCC/C=C\C/C=C\CCCCC)OC(=O)CCCCCCC/C=C\C/C=C\CCCCC [trilinolein] + CCCCC/C=C\C/C=C\CCCCCCCC(=O)O
x2 = 0.7536
Settings	kinematic viscosity [m2/s]
303.15 K	2.55e-05
313.15 K	1.85e-05
323.15 K	1.31e-05
333.15 K	9.96e-06
343.15 K	7.98e-06
353.15 K	6.83e-06
363.15 K	5.69e-06

CCCCC/C=C\C/C=C\CCCCCCCC(=O)OCC(COC(=O)CCCCCCC/C=C\C/C=C\CCCCC)OC(=O)CCCCCCC/C=C\C/C=C\CCCCC [trilinolein] + CCCCCCCC/C=C\CCCCCCCC(=O)O
x2 = 0.7564
Settings	kinematic viscosity [m2/s]
293.15 K	4.14e-05
303.15 K	2.82e-05
313.15 K	2.07e-05
323.15 K	1.48e-05
333.15 K	1.15e-05
343.15 K	9.32e-06
353.15 K	7.62e-06
363.15 K	6.38e-06
